{
  "source": "patent US20240261236A1",
  "about": "“METHODS OF USING NMDA RECEPTOR ANTAGONISTS” (Seelos Therapeutics, Inc., priority 2021, published 2024)",
  "key": {"[1]": {"tested_on": "adults with major depressive disorder (MDD) who are at imminent risk of suicide", "assay": "MADRS Total, Phase 2 Part 1 open-label", "format": "in vivo, human", "details": "for MADRS mean score: baseline 39.4; for MADRS remission rate (a score of less than 12) / MADRS response rate: summary through Day 29/30", "from_the_text": "The Montgomery-Åsberg Depression Rating Scale (MADRS) is a diagnostic questionnaire that can be used to measure the severity of a depressive episode in a subject. In some embodiments, the MADRS can be used to measure suicidal ideation. For example, the MADRS includes 10 items directed to the following: 1) apparent sadness (e.g., representing despondency, gloom and despair that is more than just ordinary transient low spirits that is reflected in speech, facial expression, and posture); 2) reported sadness (e.g., representing reports of depressed mood, regardless of whether it is reflected in appearance or not and can include low spirits, despondency or the feeling of being beyond help and without hope); 3) inner tension (e.g., representing feelings of ill-defined discomfort, edginess, inner turmoil, mental tension mounting to either panic, dread or anguish); 4) reduced sleep (e.g., representing the experience of reduced duration or depth of sleep compared to the subject's own normal pattern when well); 5) reduced appetite (e.g., representing the feeling of a loss of appetite compared with when-well); 6) concentration difficulties (e.g., representing difficulties in collecting one's thoughts mounting to an incapacitating lack of concentration); 7) lassitude (e.g., representing difficulty in getting started or slowness in initiating and performing everyday activities); 8) inability to feel (e.g., representing the subjective experience of reduced interest in the surroundings, or activities that normally give pleasure, and the ability to react with adequate emotion to circumstances or people is reduced); 9) pessimistic thoughts (e.g., representing thoughts of guilt, inferiority, self-reproach, sinfulness, remorse and ruin); and 10) suicidal thoughts (e.g., representing the feeling that life is not worth living, that a natural death would be welcome, suicidal thoughts, and preparations for suicide). Each item is rated from 0 units to 6 units, with 0 reflecting that the subject is not at all as described by the item and 6 reflecting that the subject is extremely like what is described by the item. […] As another example, for suicidal thoughts, a score of 0 units can indicate that the subject enjoys life or takes it as it comes; a score of 2 units can indicate that the subject is weary of life and may have fleeting suicidal thoughts; a score of 4 units can indicate that the subject feels he or she would probably be better off dead (e.g., suicidal thoughts are common, and suicide is considered as a possible solution, but without specific plans or intention); and a score of 6 units can indicate that the subject has explicit plans for suicide when there is an opportunity (e.g., the subject has made active preparations for suicide). Thus, the total score, after summation of each score for each item, is on a scale of 0 units to 60 units.\nThe study schedule is identical for Parts 1 and 2. After admission to the emergency room or hospital, each subject will participate in a 1 to 2 day screening phase, a 16-day treatment phase including SOC during which study drug will be administered 2 times per week, for a total of 5 doses across the 16-day treatment period and a 2-week safety follow-up phase for a total of up to 5 weeks of study participation. Subjects will be treated as inpatients for approximately 7 days (including screening), and assuming the subject meets readiness for discharge criteria, will be discharged on Day 6 to continue the trial as outpatients, provided it is clinically appropriate to do so. Subjects will return to the clinic to receive study drug and to undergo study assessments 2 times per week until Day 16. Subjects will be evaluated for efficacy using multiple psychometric scales and for safety using clinical laboratory assessments, electrocardiograms (ECGs), vital signs, and physical examinations. […]"}, "[2]": {"tested_on": "adults with major depressive disorder (MDD) who are at imminent risk of suicide", "assay": "CADSS dissociation, Phase 2 Part 1"}},
  "data": [
    {"smiles": "CNC1(c2ccccc2Cl)CCCCC1=O", "note": "(racemic) [intranasal racemic ketamine, 1:1 mixture of the two enantiomers of ketamine: (R)-2-(2-chlorophenyl)-2-(methylamino)cyclohexanone and (S)-2-(2-chlorophenyl)-2-(methylamino)cyclohexanone]", "values": [
      {"measurement": "MADRS Total", "setting": "[1]; 90 mg IN+SOC, Subject 1, 24 hours post-administration, baseline 35 units", "value": 8, "unit": "units"},
      {"measurement": "MADRS Total", "setting": "[1]; 90 mg IN+SOC, Subject 2, 24 hours post-administration, baseline 38 units", "value": 15, "unit": "units"},
      {"measurement": "MADRS Total", "setting": "[1]; 90 mg IN+SOC, Subject 2, Day 8, after second dose on Day 4", "value": 16, "unit": "units"},
      {"measurement": "MADRS Total reduction", "setting": "[1]; 90 mg IN+SOC, both subjects, 24 hours", "value": "> 50", "unit": "%"},
      {"measurement": "MADRS mean (SD) change from baseline", "setting": "[1]; 17 subjects enrolled, 24 hours post-dose", "value": "−24.9 (8.34)"},
      {"measurement": "MADRS mean (SD) change from baseline", "setting": "[1]; 17 subjects enrolled, Day 16", "value": "−31.6 (7.31)"},
      {"measurement": "subjects who experienced MADRS remission", "setting": "[1]; 24 hours post-dose", "value": 35.5, "unit": "%"},
      {"measurement": "subjects who experienced MADRS response", "setting": "[1]; 24 hours post-dose", "value": 76.5, "unit": "%"},
      {"measurement": "MADRS mean score", "setting": "[1]; Day 1", "value": 14.5},
      {"measurement": "subjects who experienced MADRS remission", "setting": "[1]; Day 16", "value": 78.6, "unit": "%"},
      {"measurement": "subjects who experienced MADRS response", "setting": "[1]; Day 16", "value": 92.9, "unit": "%"},
      {"measurement": "MADRS mean score", "setting": "[1]; Day 16", "value": 7.4},
      {"measurement": "MADRS mean score", "setting": "[1]; Day 29", "value": 6.3},
      {"measurement": "MADRS mean (SD) change from baseline", "setting": "[1]; final follow-up on Day 29/30", "value": "−32.1 (7.4)"},
      {"measurement": "mean MADRS score", "setting": "[1]; final follow-up on Day 29/30", "value": "6.3 (6.60)"},
      {"measurement": "subjects who experienced MADRS remission", "setting": "[1]; study end (Day 29/30)", "value": 76.9, "unit": "%"},
      {"measurement": "subjects who experienced MADRS response", "setting": "[1]; study end (Day 29/30)", "value": 100, "unit": "%"},
      {"measurement": "MADRS remission rate (a score of less than 12)", "setting": "[1]; Day 1", "value": 23.5, "unit": "%"},
      {"measurement": "MADRS response rate", "setting": "[1]; Day 1", "value": 76.5, "unit": "%"},
      {"measurement": "MADRS remission rate (a score of less than 12)", "setting": "[1]; Day 16", "value": 78.6, "unit": "%"},
      {"measurement": "MADRS response rate", "setting": "[1]; Day 16", "value": 92.9, "unit": "%"},
      {"measurement": "MADRS response rate", "setting": "[1]; Day 29, 14 days after the last dose on Day 15", "value": 100, "unit": "%"},
      {"measurement": "CADSS score", "setting": "[2]; 90 mg IN+SOC, Subject 1, all assessments, threshold for dissociation >4 units", "value": "zero"},
      {"measurement": "CADSS score", "setting": "[2]; 90 mg IN+SOC, Subject 2, 40 minutes post-administration", "value": 2, "unit": "units"},
      {"measurement": "CADSS score", "setting": "[2]; 90 mg IN+SOC, Subject 2, 1 hour post-administration", "value": "zero"},
      {"measurement": "clinically relevant dissociation", "setting": "[2]; 90 mg IN+SOC, Subjects 1 and 2", "value": "neither subject exhibited clinically relevant dissociation"},
      {"measurement": "clinically meaningful sedation or dissociation", "setting": "[2]; 90 mg IN+SOC, entire patient cohort to the Day 29/30 endpoint", "value": "no clinically meaningful sedation or dissociation"},
      {"measurement": "CADSS change from baseline (at 40 minutes)", "setting": "[2]; Day 4 (after second dose)", "value": 2.3},
      {"measurement": "CADSS change from baseline (at 40 minutes)", "setting": "[2]; Day 8 (after third dose)", "value": 0.4},
      {"measurement": "subjects with no dissociation (total CADSS score >4 units = dissociation)", "setting": "[2]; Days 1 and 4", "value": "four"},
      {"measurement": "subjects reporting dissociation", "setting": "[2]; after Day 4 (on Day 11 at 40 minutes), 7 subjects", "value": 1, "unit": "subject"},
      {"measurement": "CADSS change from baseline (at 40 minutes)", "setting": "[2]; after first dose", "value": 3.8}
    ]}
  ]
}
